Publication PMC12197871 (Protein Science : A Publication of the Protein Society, 2025)
Entries after “also recorded” stand apart in the source; their conditions may differ.

Key:
[1] = target: T1, GsLDH (Geobacillus stearothermophilus, UniProt P00344); assay: Isothermal titration calorimetry of cofactor binding to GsLDH; details: for K B × 10^5 / TΔS B / ΔG B / ΔH B / binding stoichiometry n / Kd: presence of FBP; for K B × 10^5 / TΔS B / ΔG B / ΔH B / Kd: 30°C; for enthalpy change on titration of the enzyme: absence of FBP; for Kd: K d
T1 sequence (P00344 whole entry): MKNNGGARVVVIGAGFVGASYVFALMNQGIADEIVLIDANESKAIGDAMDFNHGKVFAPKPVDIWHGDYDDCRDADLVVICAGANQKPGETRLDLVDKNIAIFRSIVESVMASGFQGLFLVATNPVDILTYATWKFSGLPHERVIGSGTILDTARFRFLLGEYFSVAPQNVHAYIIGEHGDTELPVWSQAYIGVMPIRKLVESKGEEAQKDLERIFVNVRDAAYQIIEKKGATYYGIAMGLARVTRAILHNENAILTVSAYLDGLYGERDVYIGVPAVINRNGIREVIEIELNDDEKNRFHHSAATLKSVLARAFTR

[2] = target: T1, GsLDH; assay: GsLDH kinetic studies; format: biochemical; details: WT GsLDH

K B × 10^5 ([1]; WT)	TΔS B ([1]; WT)	ΔG B ([1]; WT)	ΔH B ([1]; WT)	binding stoichiometry n [1]	fold decrease of K m for pyruvate in the presence of FBP [2]	fold improvement of catalytic efficiency (k cat/K m) in the presence of FBP [2]	Kd ([1]; WT with pyruvate)	Kd ([1]; WT)	K B × 10^5 ([1]; WT with pyruvate)	TΔS B ([1]; WT with pyruvate)	ΔG B ([1]; WT with pyruvate)	ΔH B ([1]; WT with pyruvate)	Compound	enthalpy change on titration of the enzyme [1]
8 ± 2 10^5 M^−1	-50.8 kcal/mol	-8.2 kcal/mol	-59 ± 4 kcal/mol	~1									reduced nicotinamide adenine dinucleotide [NADH]	did not result in significant enthalpy changes; also recorded: too low to be detected
					5.6 fold	3.3 fold							O=C(COP(=O)(O)O)[C@@H](O)[C@H](O)[C@H](O)COP(=O)(O)O [FBP, fructose 1,6‐bisphosphate]	
3 ± 2 10^5 M^−1	-134.4 kcal/mol	-7.6 kcal/mol	-142 ± 20 kcal/mol	~1			1600 nM	3000 nM	6 ± 2 10^5 M^−1	-37.0 kcal/mol	-8.0 kcal/mol	-45 ± 2 kcal/mol	NC(=O)c1ccc[n+]([C@@H]2O[C@H](COP(=O)([O-])OP(=O)(O)OC[C@H]3O[C@@H](n4cnc5c(N)ncnc54)[C@H](O)[C@@H]3O)[C@@H](O)[C@H]2O)c1 [NAD^+, oxidized nicotinamide adenine dinucleotide]	did not result in significant enthalpy changes
